Measured values from the supplement of paper PMC11061612.

Key:
Assay in all cases: Bliss excess, mean over the matrix (fraction); higher = more synergy
[1] = test system: HOP-62 (Lung Adenocarcinoma)
In short: (§1)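 After 24 hours at 37°C and 5% CO2 in 1536-well plates, cells in DMEM/F12 or RPMI plus 10% FBS received two-drug dose matrices for 72 hours. Viability came from CellTiter-Glo 2.0 luminescence and was scaled as inhibition, anchored at 0 by vehicle wells and at 1 by blank wells. Combination Emax is taken as the second-highest inhibition in the matrix, and Bliss excess as the observed combination effect less EA + EB − EA·EB, with EA and EB the single-agent effects.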

[2] = test system: NCI-H1915 (Non-Small Cell Lung Carcinoma)
In short: as §1

[3] = test system: BT-549 (Breast Carcinoma)
In short: as §1

[4] = test system: NB69 (Neuroblastoma)
In short: as §1

[5] = test system: KARPAS-299 (T-Cell Non-Hodgkin's Lymphoma)
In short: as §1

[6] = test system: UACC-62 (Melanoma)
In short: as §1

[7] = test system: RF-48 (B-Cell Non-Hodgkin's Lymphoma)
In short: as §1

[8] = test system: PANC-04-03 (Pancreatic Carcinoma)
In short: as §1

[9] = test system: SCC-15 (Oral Cavity Carcinoma)
In short: as §1

[10] = test system: AMO-1 (Plasma Cell Myeloma)
In short: as §1

[11] = test system: TE-1 (Esophageal Squamous Cell Carcinoma)
In short: as §1

[12] = test system: TK10 (Kidney Carcinoma)
In short: as §1

[13] = test system: MLMA (Other Blood Carcinomas)
In short: as §1

[14] = test system: EoL-1-cell (Acute Myeloid Leukemia)
In short: as §1

[15] = test system: Caov-4 (Ovarian Carcinoma)
In short: as §1

[16] = test system: NCI-H727 (Other Solid Carcinomas)
In short: as §1

[17] = test system: D-263MG (Glioblastoma)
In short: as §1

[18] = test system: SW13 (Other Solid Carcinomas)
In short: as §1

[19] = test system: MIA-PaCa-2 (Pancreatic Carcinoma)
In short: as §1

[20] = test system: EFM-19 (Breast Carcinoma)
In short: as §1

Compound: CC1(C)CCC(CN2CCN(c3ccc(C(=O)NS(=O)(=O)c4ccc(NCC5CCOCC5)c([N+](=O)[O-])c4)c(Oc4cnc5[nH]ccc5c4)c3)CC2)=C(c2ccc(Cl)cc2)C1 [Venetoclax] + C[C@@H](Nc1cc(F)cc(F)c1)c1cc(C(=O)N(C)C)cc2c(=O)cc(N3CCOCC3)oc12 [AZD8186] (first compound max 1 µM, 7x7, partner max 3 µM)
- Bliss excess [1]: -0.0412
- Bliss excess [2]: -0.0264
- Bliss excess [3]: -0.0328
- Bliss excess [4]: -0.221
- Bliss excess [5]: -0.0074
- Bliss excess [6]: 0.0118
- Bliss excess [7]: 0.0481
- Bliss excess [8]: -0.0374
- Bliss excess [9]: -0.0348
- Bliss excess [10]: -0.0065
- Bliss excess [11]: 0.0042
- Bliss excess [12]: -0.0887
- Bliss excess [13]: -0.0327
- Bliss excess [14]: 0.103
- Bliss excess [15]: -0.0109
- Bliss excess [16]: -0.0654
- Bliss excess [17]: -0.0044
- Bliss excess [18]: -0.0263
- Bliss excess [19]: -0.0513
- Bliss excess [20]: -0.0099

Compound: CC1(C)CCC(CN2CCN(c3ccc(C(=O)NS(=O)(=O)c4ccc(NCC5CCOCC5)c([N+](=O)[O-])c4)c(Oc4cnc5[nH]ccc5c4)c3)CC2)=C(c2ccc(Cl)cc2)C1 [Venetoclax] + Cc1cc2ncnn2cc1Nc1ncc2c(n1)n(C1CCOCC1)c(=O)n2C [AZD7648] (first compound max 1 µM, 7x7, partner max 10 µM)
- Bliss excess [1]: -0.0711
- Bliss excess [2]: 0.0029
- Bliss excess [3]: -0.0328
- Bliss excess [4]: 0.0069
- Bliss excess [5]: 0.0487
- Bliss excess [6]: -0.0424
- Bliss excess [7]: -0.0106
- Bliss excess [8]: -0.0617
- Bliss excess [9]: -0.0303
- Bliss excess [10]: -0.0116
- Bliss excess [11]: -0.0451
- Bliss excess [12]: -0.102
- Bliss excess [13]: -0.0323
- Bliss excess [14]: 0.0489
- Bliss excess [15]: -0.0492
- Bliss excess [16]: -0.0634
- Bliss excess [17]: -0.0572
- Bliss excess [18]: 0.0127
- Bliss excess [19]: -0.0218
- Bliss excess [20]: -0.0469

Compound: CC1(C)CCC(CN2CCN(c3ccc(C(=O)NS(=O)(=O)c4ccc(NCC5CCOCC5)c([N+](=O)[O-])c4)c(Oc4cnc5[nH]ccc5c4)c3)CC2)=C(c2ccc(Cl)cc2)C1 [Venetoclax] + Cn1cnc2c(F)c(Nc3ccc(Br)cc3Cl)c(C(=O)NOCCO)cc21 [Selumetinib] (first compound max 1 µM, 7x7, partner max 3 µM)
- Bliss excess [1]: -0.0155
- Bliss excess [2]: -0.0541
- Bliss excess [3]: -0.0691
- Bliss excess [4]: 0.0179
- Bliss excess [5]: -0.0102
- Bliss excess [6]: -0.0235
- Bliss excess [7]: -0.0034
- Bliss excess [8]: -0.0633
- Bliss excess [9]: -0.0428
- Bliss excess [10]: 0.0092
- Bliss excess [11]: 0.0008
- Bliss excess [12]: -0.109
- Bliss excess [13]: 0.0401
- Bliss excess [14]: 0.158
- Bliss excess [15]: 0.0087
- Bliss excess [16]: -0.0534
- Bliss excess [17]: -0.0292
- Bliss excess [18]: 0.0137
- Bliss excess [19]: -0.0073
- Bliss excess [20]: -0.0607
